Reference: patent US20100105647A1 (priority 2007, published 2010)

System: Alternaria brassicicola
Test: Test of Preventive Effect on Japanese Radish Alternaria Leaf Spot
Assay type: in vivo
Conditions: Japanese radish (cultivar: Wase 40-nichi), foliage application 500 ppm, 1 day high humidity at 24° C. plus 3 days greenhouse
Description: The controlling effect was evaluated by visually observing the area of lesion spots on each of test plants at the time of investigation and comparing the area of lesion spots on a plant treated with the present compound with that on an untreated plant.
Test of Preventive Effect on Japanese Radish Alternaria Leaf Spot (Alternaria brassicicola)
Each of plastic pots was filled with sandy loam and sown with Japanese radish (cultivar: Wase 40-nichi), followed by growing in a greenhouse for 5 days. Each of the present compounds 1-19, 21-40 and 41 was formulated into a flowable formulation according to Formulation Example 6. The flowable formulation was diluted to a predetermined concentration (500 ppm) with water, and foliage application of the dilution was carried out so that the dilution adhered sufficiently to the surfaces of leaves of the Japanese radish. After the foliage application, the plant was air-dried and then inoculated by spraying a water suspension of spores of Alternaria brassicicola. After the inoculation, the plant was held under high humidity conditions at 24° C. for 1 day and held in a greenhouse for 3 days, and then the area of lesion spots was investigated.

C#CCOc1c(F)cc(C(=O)NCC2=CCCCC2)cc1F [compound 18]
area of lesion spots on the treated plant relative to that on an untreated plant: ≤ 30%
